PMC10257182, “Discovery of senolytics using machine learning” (Nature Communications, 2023)
Like-named read-outs stand apart in the source and are kept apart here.

Legend:
Assay type in all cases: cell-based, human
[1] = test system: senescent IMR90 ER:RAS cells (4-OHT-induced); assay: Nuclei count (Hoechst, high content imaging) senolytic assay, oncogene-induced senescence (OIS) model, senescent cells; conditions: Homo sapiens; for viability at 10 µM: log (dose) [M] -5, 72 h; for viability at 0.04677 µM: log (dose) [M] -7.33, 72 h
From the text: To test for senolytic activity, we compared the effect of each compound on the total cell number (automated high content image-based analysis of total number of nuclei per well) in non-senescent and senescent IMR90 ER:RAS cultures treated with the top hits from the computational screen (Figs. 2e and 3a–d and Supplementary Fig. 4a–c). The drop in cell number compared to untreated controls is indicated by the nuclei count and reflects cell death[13],[15]. As positive control, we employed ouabain, a cardiac glycoside with well characterised senolytic activity.
(§1) We performed experimental validation of the compounds with z-score > 8 (Fig. 2e). […] We employed two cellular models of senescence: one of OIS and a second one of TIS. For the OIS case, we utilised IMR90 ER:RAS cells with 4-OHT at 100 nM. […] For the TIS model, we used A549 cells with etoposide at 100 μM. The exposure of the cells to etoposide lasted 48 h, after which period the cells were cultivated for a further three days with normal media.
(§2) IMR90 (CCL-186) human foetal lung fibroblasts and A549 (CCL-185) human lung adenocarcinoma cells were obtained from the American Type Culture Collection (ATCC, Manassas, VA). The cell lines were confirmed to be mycoplasma negative (Lonza MycoAlert, cat #LT07-118). IMR90 ER:RAS is a derivative of IMR90 cells expressing a switchable version of oncogenic H-Ras[84]. IMR90 ER:RAS and A549 cells were maintained in Dulbecco’s Modified Eagle Medium (DMEM, ThermoFisher) supplemented with foetal bovine serum (10%), L-glutamine (2 mM, ThermoFisher), and antibiotic-antimycotic solution (1%, ThermoFisher) and incubated under standard tissue culture conditions (37 °C and 5% CO2). For induction of the senescent phenotype, IMR90-ER:RAS cells were cultured in hydroxytamoxifen (4-OHT) (Sigma) added media at 100 nM final concentration. IMR90 were kept in culture for over 27 passages for replicative senescence. Cells were tested for mycoplasma on a regular basis.
(§3) Cells were seeded (50 μL per well) into 384-well plates (IMR90 ER:RAS cells in Nunc Optical Bottom Polybase Microplates [#142761, Thermo Scientific, Rochester, NY] and A549 cells in CELLSTAR Cell Culture Microplates [#781091, Greiner Bio-One, Kremsmünster, Austria]). Cells were incubated under standard tissue culture conditions for 24 h before the addition of compounds. Passage 14 IMR90 ER:RAS cells were seeded at 1300 cells per well in the control condition, and at 1600 cells per well in the senescent case. Passage 34 A549 cells were seeded at 7000 cells per well in the control condition, and at 10,000 cells per well in the senescent case.
(§4) Dose response plates were prepared with a DMSO control and a 10-point […] concentration range, and added to the compounds using a D300e digital dispenser (Tecan Trading AG, Switzerland) at a final concentration of between 10 μM and 10 nM. Every screened condition was carried out in triplicate. After 72 h of incubation with exposure to the compounds, cells were fixed by the addition of an equal volume of formaldehyde (8%, 50 μL; #BP531-500, Fisher Bioreagents, Fisher Scientific, Loughborough, Leicestershire) to the existing media, incubated at room temperature (30 min), and washed three times in phosphate-buffered saline (PBS). Cells were then permeabilised in Triton-X100 (0.1%, 50 μL) and incubated at room temperature (30 min) followed by three more washes with PBS.
(§5) Cells were stained with Hoechst 33342 for nuclei count (excitation/emission wavelength at 387/447 […], DAPI channel, original concentration at 10 mg/ml, final concentration at 2 μg/ml; H1399, Molecular Probes, Eugene, OR). The staining solution was prepared in bovine serum albumin solution (10%). The staining solution was added to each well (30 μL) and incubated in the dark at room temperature (30 min), followed by three washes with PBS and no final aspiration. Plates were foil sealed.

[2] = test system: senescent A549 cells (etoposide-induced); assay: Nuclei count senolytic assay, therapy-induced senescence (TIS) model, senescent cells; conditions: Homo sapiens, A549, Senescent cells, mean, read-out: Mean % Cell Survival; for viability at 10 µM: log (dose) [M] -5; for viability at 4.68 µM: log (dose) [M] -5.33; for viability at 2.19 µM: log (dose) [M] -5.66; for viability at 1 µM: log (dose) [M] -6; for viability at 0.468 µM: log (dose) [M] -6.33; for viability at 0.219 µM: log (dose) [M] -6.66; for viability at 0.1 µM: log (dose) [M] -7; for viability at 0.0468 µM: log (dose) [M] -7.33; for viability at 0.0219 µM: log (dose) [M] -7.66; for viability at 0.01 µM: log (dose) [M] -8
Method: (§6) We performed a second validation of the effectiveness of our machine learning models using a different stressor. We focused on therapy-induced senescence (TIS, Supplementary Fig. 6a), where human epithelial cancerous cells (A549) were induced to become senescent by addition of etoposide. Cells were treated with 100 μM etoposide for 48 h, followed by another three days of exposure to media in standard conditions.
as §1, §2, §3, §4, §5
(§7) Plates were imaged on an ImageXpress micro XLS (Molecular Devices, Eugene, OR) equipped with a robotic plate loader (Scara4, PAA, UK).

[3] = test system: non-senescent control A549 cells; assay: Nuclei count senolytic assay, TIS model, non-senescent control cells; conditions: Homo sapiens, A549, Control cells, mean, read-out: Mean % Cell Survival; for viability at 10 µM: log (dose) [M] -5; for viability at 4.68 µM: log (dose) [M] -5.33; for viability at 2.19 µM: log (dose) [M] -5.66; for viability at 1 µM: log (dose) [M] -6; for viability at 0.468 µM: log (dose) [M] -6.33; for viability at 0.219 µM: log (dose) [M] -6.66; for viability at 0.1 µM: log (dose) [M] -7; for viability at 0.0468 µM: log (dose) [M] -7.33; for viability at 0.0219 µM: log (dose) [M] -7.66; for viability at 0.01 µM: log (dose) [M] -8
Method: as §6, §1, §2, §3, §4, §5, §7

[4] = IMR-90, 72 h, Senescent, mean n=3 (Fig 3C), read-out: Mean % Cell Survival
[5] = IMR-90, 72 h, Senescent, log (dose) [M] -5.33, 72 h, mean n=3 (Fig 3C), read-out: Mean % Cell Survival
[6] = IMR-90, 72 h, Senescent, log (dose) [M] -5.66, 72 h, mean n=3 (Fig 3C), read-out: Mean % Cell Survival
[7] = IMR-90, 72 h, Senescent, log (dose) [M] -6, 72 h, mean n=3 (Fig 3C), read-out: Mean % Cell Survival
[8] = IMR-90, 72 h, Senescent, log (dose) [M] -6.33, 72 h, mean n=3 (Fig 3C), read-out: Mean % Cell Survival
[9] = IMR-90, 72 h, Senescent, log (dose) [M] -6.66, 72 h, mean n=3 (Fig 3C), read-out: Mean % Cell Survival
[10] = IMR-90, 72 h, Senescent, log (dose) [M] -7, 72 h, mean n=3 (Fig 3C), read-out: Mean % Cell Survival
[11] = IMR-90, 72 h, Senescent, log (dose) [M] -7.66, 72 h, mean n=3 (Fig 3C), read-out: Mean % Cell Survival
[12] = IMR-90, 72 h, Senescent, log (dose) [M] -8, 72 h, mean n=3 (Fig 3C), read-out: Mean % Cell Survival

Compound	viability at 10 µM [1, 4] [%]	viability at 4.677 µM [1, 5] [%]	viability at 2.188 µM [1, 6] [%]	viability at 1 µM [1, 7] [%]	viability at 0.4677 µM [1, 8] [%]	viability at 0.2188 µM [1, 9] [%]	viability at 0.1 µM [1, 10] [%]	viability at 0.04677 µM [1, 4] [%]	viability at 0.02188 µM [1, 11] [%]	viability at 0.01 µM [1, 12] [%]	viability at 10 µM [2] [%]	viability at 4.68 µM [2] [%]	viability at 2.19 µM [2] [%]	viability at 1 µM [2] [%]	viability at 0.468 µM [2] [%]	viability at 0.219 µM [2] [%]	viability at 0.1 µM [2] [%]	viability at 0.0468 µM [2] [%]	viability at 0.0219 µM [2] [%]	viability at 0.01 µM [2] [%]	other results
Cc1c(-c2c(F)cc(C(N)=O)c3[nH]c4c(c23)CC[C@H](C(C)(C)O)C4)cccc1-n1c(=O)c2cccc(F)c2n(C)c1=O [BMS 986142]	97.6	143	96.7	102	101	100	98.6	109	95.3	97.5	77.3	86.4	85.2	92.7	94.2	87.5	100	95.4	104	101	viability at 4.677 µM ([1]; IMR-90, Senescent cells, log (dose) [M] -5.33, individual replicates, SUP FIG 4C, read-out: % Cell Survival): 133%; viability at 0.4677 µM ([1]; IMR-90, Senescent cells, log (dose) [M] -6.33, individual replicates, SUP FIG 4C, read-out: % Cell Survival): 103%; viability at 0.2188 µM ([1]; IMR-90, Senescent cells, log (dose) [M] -6.66, individual replicates, SUP FIG 4C, read-out: % Cell Survival): 105%; viability at 0.1 µM ([1]; IMR-90, Senescent cells, log (dose) [M] -7, individual replicates, SUP FIG 4C, read-out: % Cell Survival): 91.6%; viability at 0.02188 µM ([1]; IMR-90, Senescent cells, log (dose) [M] -7.66, individual replicates, SUP FIG 4C, read-out: % Cell Survival): 94.3%; viability at 0.01 µM ([1]; IMR-90, Senescent cells, log (dose) [M] -8, individual replicates, SUP FIG 4C, read-out: % Cell Survival): 90.3%; viability at 0.01 µM ([1]; IMR-90, Senescent, log (dose) [M] -8, read-out: % Cell Survival): 111%; viability at 10 µM [3]: 116%; viability at 4.68 µM [3]: 101%; viability at 2.19 µM [3]: 96.6%; viability at 1 µM [3]: 101%; viability at 0.468 µM [3]: 98%; viability at 0.219 µM [3]: 37.1%; viability at 0.1 µM [3]: 98.9%; viability at 0.0468 µM [3]: 33.5%; viability at 0.0219 µM [3]: 103%; viability at 0.01 µM [3]: 99.7%
O=c1oc2c(O)c(O)cc3c(=O)oc4c(O)c(O)cc1c4c23 [Ellagic acid, ellagic acid]	109	104	113	110	123	122	117	122	114	113	187	175	203	186	193	167	209	241	81.3	84.4	viability at 2.188 µM ([1]; IMR-90, Senescent cells, log (dose) [M] -5.66, individual replicates, SUP FIG 4C, read-out: % Cell Survival): 108%; viability at 1 µM ([1]; IMR-90, Senescent cells, log (dose) [M] -6, individual replicates, SUP FIG 4C, read-out: % Cell Survival): 117%; viability at 10 µM [3]: 90.6%; viability at 4.68 µM [3]: 76.6%; viability at 2.19 µM [3]: 114%; viability at 1 µM [3]: 78.9%; viability at 0.468 µM [3]: 39.9%; viability at 0.219 µM [3]: 77.2%; viability at 0.1 µM [3]: 65.1%; viability at 0.0468 µM [3]: 99%; viability at 0.0219 µM [3]: 94.5%; viability at 0.01 µM [3]: 109%
